Source: PMC11992208, “Structural basis for the prolonged photocycle of sensory rhodopsin II revealed by serial synchrotron crystallography” (Nature Communications, 2025)

Molecular target: T1, sensory rhodopsin II (NpSRII) (Natronomonas pharaonis, UniProt P42196)
T1 construct: gene sop2; His-tagged, expressed in E. coli BL21star from pET27a, Ni-NTA and size exclusion; crystallised in LCP
T1 sequence (P42196 1-239): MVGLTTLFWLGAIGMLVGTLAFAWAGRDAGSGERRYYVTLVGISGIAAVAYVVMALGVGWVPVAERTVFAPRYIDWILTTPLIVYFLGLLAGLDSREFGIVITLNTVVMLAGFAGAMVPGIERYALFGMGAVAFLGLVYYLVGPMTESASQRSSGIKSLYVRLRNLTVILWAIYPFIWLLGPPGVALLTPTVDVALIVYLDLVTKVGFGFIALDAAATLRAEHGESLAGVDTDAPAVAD
Test: serial synchrotron X-ray crystallography
Format: binding
Conditions: covalent, room temperature

Structure (SMILES) | serial synchrotron X-ray crystallography (Lys205, photoisomerized in situ from all-trans retinal, M-state at partial occupancy, continuous 488 nm illumination) | serial synchrotron X-ray crystallography (protonated Schiff base to Lys205, dark resting state, LCP microcrystals)
CC1=C(/C=C/C(C)=C/C=C/C(C)=C\C=O)C(C)(C)CCC1 [13-cis retinal] | the population of the M-state was given a 13-cis retinal | –
CC1=C(/C=C/C(C)=C/C=C/C(C)=C/C=O)C(C)(C)CCC1 [all-trans retinal] | – | the resting and O-state populations were refined with an all-trans retinal
